Measured values: PMC4804716 (The FEBS journal, 2015)
Positions count from the first letter of the chain named. Where two headings read alike, the source gives them in different places.

Tests used:
Sec498Cys TrxR = biological target: T1, Sec498Cys TrxR (Homo sapiens, UniProt Q16881); assay: hTrxR mutant DTNB assay; assay type: biochemical
T1 sequence (Q16881 with tags, fused parts or gaps isoform Q16881-5): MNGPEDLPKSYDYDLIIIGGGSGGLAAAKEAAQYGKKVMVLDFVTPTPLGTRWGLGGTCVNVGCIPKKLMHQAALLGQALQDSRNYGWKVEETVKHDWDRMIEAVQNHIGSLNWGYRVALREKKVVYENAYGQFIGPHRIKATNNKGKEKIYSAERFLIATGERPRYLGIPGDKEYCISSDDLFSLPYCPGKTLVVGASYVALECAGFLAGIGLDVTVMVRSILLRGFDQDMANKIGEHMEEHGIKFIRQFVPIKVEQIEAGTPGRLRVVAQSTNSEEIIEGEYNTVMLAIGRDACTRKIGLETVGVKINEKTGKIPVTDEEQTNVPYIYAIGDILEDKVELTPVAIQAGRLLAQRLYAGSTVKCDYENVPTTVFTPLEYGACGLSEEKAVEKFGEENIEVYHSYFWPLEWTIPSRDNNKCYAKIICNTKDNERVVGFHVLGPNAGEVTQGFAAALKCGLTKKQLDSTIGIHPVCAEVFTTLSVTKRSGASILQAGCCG

[1] = Cyclic voltammetry of menadione derivatives; assay type: physicochemical; conditions: for Epa1 / Epc2 / Ipc1/Ipa1 / E^1½ / ΔEp (first wave): DMSO; for Epa1 / Epc2: 0.1 M n-Bu4NPF6, v = 200 mV s^−1, reference KCl(3 M)/Ag/AgCl; for Epa1 / Ipc1/Ipa1 / E^1½: first wave; for Epc2 / E^2½ / Epa2 / Ipc2/Ipa2 / ΔEp (second wave): second wave; for Ipc1/Ipa1 / ΔEp (first wave): 0.1 M n-Bu4NPF6, v = 200 mV s^−1; for E^1½ / E^2½: E½ = (Epc+Epa)/2; for E^1½: 0.1 M n-Bu4NPF6, reference KCl(3 M)/Ag/AgCl; for E^2½ / Epa2 / Ipc2/Ipa2 / ΔEp (second wave): irr: irreversible reduction; for ΔEp (first wave) / ΔEp (second wave): ΔE = Epa-Epc; for ΔE½: ΔE½ = E^1½-E^2½
[2] = biological target: T2, Schistosoma mansoni thioredoxin glutathione reductase (SmTGR) (Schistosoma mansoni, UniProt Q962Y6); assay: SmTGR DTNB assay; assay type: biochemical
T2 sequence (Q962Y6 1-598): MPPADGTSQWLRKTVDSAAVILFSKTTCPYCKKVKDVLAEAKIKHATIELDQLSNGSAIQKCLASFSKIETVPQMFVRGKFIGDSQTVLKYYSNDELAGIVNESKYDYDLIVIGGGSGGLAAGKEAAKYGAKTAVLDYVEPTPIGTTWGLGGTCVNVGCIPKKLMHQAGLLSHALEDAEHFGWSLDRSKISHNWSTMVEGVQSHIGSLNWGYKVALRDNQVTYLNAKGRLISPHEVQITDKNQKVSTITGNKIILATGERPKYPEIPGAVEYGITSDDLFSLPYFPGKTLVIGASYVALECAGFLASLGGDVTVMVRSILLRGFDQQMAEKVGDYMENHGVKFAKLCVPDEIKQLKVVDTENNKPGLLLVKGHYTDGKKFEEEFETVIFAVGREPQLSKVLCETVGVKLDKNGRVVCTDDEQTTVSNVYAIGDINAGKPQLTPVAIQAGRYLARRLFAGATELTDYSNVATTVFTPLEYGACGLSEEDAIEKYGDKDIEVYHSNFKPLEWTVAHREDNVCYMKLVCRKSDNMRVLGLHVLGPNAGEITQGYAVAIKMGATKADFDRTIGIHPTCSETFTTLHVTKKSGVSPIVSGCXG

S. mansoni worms = assay: Antischistosomal activity against adult, ex vivo worms; assay type: cell-based, Schistosoma mansoni; conditions: for antischistosomal activity against cultured ex vivo worms: 50 μM compound alone
Placenta wild type hTrxR [3] = biological target: T3, Placenta wild type hTrxR (Homo sapiens, UniProt Q16881); assay: hTrxR Trx assay; assay type: biochemical; conditions: for IC50: IC50 hTrxR, text summary spanning the Trx assay and the DTNB assay; for IC50 fold higher for hTrxR than for SmTGR: selectivity hTrxR versus SmTGR
T3 sequence (Q16881 1-499 isoform Q16881-5): T1 sequence (Q16881 with tags, fused parts or gaps isoform Q16881-5) with C498U

[4] = biological target: T4, human glutathione reductase (hGR) (Homo sapiens, UniProt P00390); assay: hGR assay; assay type: biochemical
T4 sequence (P00390 1-479 isoform P00390-2): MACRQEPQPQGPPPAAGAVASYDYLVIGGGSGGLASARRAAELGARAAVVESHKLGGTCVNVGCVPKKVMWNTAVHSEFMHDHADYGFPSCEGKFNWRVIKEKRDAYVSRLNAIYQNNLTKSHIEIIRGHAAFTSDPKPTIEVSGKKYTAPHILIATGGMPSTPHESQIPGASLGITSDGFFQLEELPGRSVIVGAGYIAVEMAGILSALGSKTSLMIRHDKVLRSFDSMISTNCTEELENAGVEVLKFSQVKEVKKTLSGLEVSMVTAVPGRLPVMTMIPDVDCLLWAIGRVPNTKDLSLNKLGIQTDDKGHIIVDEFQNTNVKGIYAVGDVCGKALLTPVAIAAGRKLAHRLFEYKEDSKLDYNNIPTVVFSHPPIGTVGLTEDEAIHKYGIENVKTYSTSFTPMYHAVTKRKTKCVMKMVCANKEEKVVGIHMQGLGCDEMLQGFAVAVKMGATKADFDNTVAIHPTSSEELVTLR

Placenta wild type hTrxR [5] = biological target: T3, Placenta wild type hTrxR; assay: hTrxR DTNB assay; assay type: biochemical
[6] = Cytotoxicity against human MRC-5 cells; assay type: cell-based; conditions: human lung MRC-5 fibroblasts (MRC-5SV2 cells)
[7] = biological target: T2, Schistosoma mansoni thioredoxin glutathione reductase (SmTGR)
[8] = Glutathionylation reaction kinetics; assay type: physicochemical; conditions: pH 7.5
[9] = 50 μM with hemoglobin 10 μM, 22h incubation

| SMILES | IC50 (Sec498Cys TrxR) [nM] | Epa1 [1] [V] | Epc2 [1] [V] | Ipc1/Ipa1 [1] | E^1½ [1] [V] | E^2½ [1] | Epa2 [1] | Ipc2/Ipa2 [1] | ΔEp (first wave) [1] [mV] | ΔEp (second wave) [1] | IC50 [2] [nM] | IC50 (Placenta wild type hTrxR [3]) [nM] | IC50 [4] [nM] | IC50 (Placenta wild type hTrxR [5]) [nM] | antischistosomal activity against cultured ex vivo worms (S. mansoni worms) | also measured |
| --- | --- | --- | --- | --- | --- | --- | --- | --- | --- | --- | --- | --- | --- | --- | --- | --- |
| CC1=C(COc2ccc(C(=O)O)cc2)C(=O)c2ccccc2C1=O [Compound 1, 4-((3-Methyl-1,4-dioxo-1,4-dihydronaphthalen-2-yl)methoxy)benzoic acid] | 40000 | −0.532 | −1.265 | 1.27 | −0.580 | irr | irr | irr | 96 | irr | 482 | 2000 to 3000 | 2300 | 3000 | able to kill cultured adult worms | IC50 at 3 days [6]: 6550 nM |
| COc1c(F)cc(OCC2=C(C)C(=O)c3ccccc3C2=O)cc1F [Compound 3, 2-((3,5-Difluoro-4-methoxyphenoxy)methyl)-3-methylnaphthalene-1,4-dione] | > 100000 |  |  |  |  |  |  |  |  |  | 407 | 2000 | > 25000 | 2000 | most potent |  |
| CC1=C(COc2ccc(Br)cc2)C(=O)c2ccccc2C1=O [Compound 5, 2-((4-Bromophenoxy)methyl)-3-methylnaphthalene-1,4-dione] | > 100000 |  | −1.158 | 1.89 |  | irr | irr | irr | 119 | irr | 784 | 800 | > 5000 | 800 |  |  |
| CC1=C(COc2cccc(C(F)(F)F)c2)C(=O)c2ccccc2C1=O [Compound 6, 2-Methyl-3-((3-(trifluoromethyl)phenoxy)methyl)naphthalene-1,4-dione] | > 50000 |  |  |  |  |  |  |  |  |  | 166 | 1500 to 3000 | 600 | 1500 | inactive | IC50 fold higher for hTrxR than for SmTGR (Placenta wild type hTrxR [3]): around 10 fold |
| COc1ccc(OCC2=C(C)C(=O)c3ccccc3C2=O)cc1C(F)(F)F [Compound 7, 2-((4-Methoxy-3-(trifluoromethyl)phenoxy)methyl)-3-methylnaphthalene-1,4-dione] | > 50000 | −0.506 | −1.132 | 2.92 | −0.563 | −1.126 V | −1.120 V | 1.75 | 114 |  | 200 | 800 to 1500 | 12000 | 1500 | active | second order rate constant ki/KI [7]: 1180 M⁻¹ s⁻¹; ΔE½ [1]: 563 mV; survival rates in the presence versus absence of RBCs after 24 hours (S. mansoni worms; 50 μM, human red blood cells 10 μl/well, 24 hours): identical; dead parasites in the absence versus presence of RBCs after 48 hours (S. mansoni worms; 50 μM, human red blood cells 10 μl/well, 48 hours): more parasites were dead in the absence of RBCs than in the presence of RBCs; IC50 fold higher for hTrxR than for SmTGR (Placenta wild type hTrxR [3]): around 5 fold |
| O.O.O.O=C([O-])[C@H]([O-])[C@@H]([O-])C(=O)[O-].O=C([O-])[C@H]([O-])[C@@H]([O-])C(=O)[O-].[K+].[K+].[Sb+3].[Sb+3] [PAT, potassium antimonyl tartrate, reference compound] |  |  |  |  |  |  |  |  |  |  |  |  |  |  |  | IC50 ([2]; read-out: IC50 SmTGR assay, pH 7, 25°C, 100 μM NADPH, 3 mM DTNB): 173 nM; dead worms (S. mansoni worms; drug reference, after two days): 100% |

More lines, main results first:

| IC50 (Sec498Cys TrxR) [nM] | Epa1 [1] [V] | Epc2 [1] [V] | Ipc1/Ipa1 [1] | E^1½ [1] [V] | E^2½ [1] | Epa2 [1] | Ipc2/Ipa2 [1] | ΔEp (first wave) [1] [mV] | ΔEp (second wave) [1] | IC50 [2] [nM] | IC50 (Placenta wild type hTrxR [3]) [nM] | IC50 [4] [nM] | IC50 (Placenta wild type hTrxR [5]) [nM] | SMILES | antischistosomal activity against cultured ex vivo worms (S. mansoni worms) | also measured |
| --- | --- | --- | --- | --- | --- | --- | --- | --- | --- | --- | --- | --- | --- | --- | --- | --- |
| 6000 | −0.492 | −1.154 | 2.29 | −0.556 | −1.127 V | −1.100 V | 2 | 128 | 54 mV | 462 | 1200 to 1500 | 8500 | 1200 | CC1=C(COc2ccc(C#N)cc2)C(=O)c2ccccc2C1=O [Compound 2, 4-((3-Methyl-1,4-dioxo-1,4-dihydronaphthalen-2-yl)methoxy)benzonitrile] | (moderately) active | ΔE½ [1]: 571 mV; female worms killed (S. mansoni worms; [9]): 100%; male worms killed (S. mansoni worms; [9]): 50% |
| > 100000 |  |  |  |  |  |  |  |  |  | 457 | 700 | 5500 | 700 | CC1=C(COc2ccc(Cl)cc2)C(=O)c2ccccc2C1=O [Compound 4, 2-((4-Chlorophenoxy)methyl)-3-methylnaphthalene-1,4-dione] |  |  |
| 370 | −0.244 |  | 3.31 | −0.329 |  |  |  | 170 |  | 144 | 13 to 14 | 2100 | 14 | N#Cc1ccc(OCC2=C(C(F)F)C(=O)c3ccccc3C2=O)cc1 [Compound 8, 4-((3-(Difluoromethyl)-1,4-dioxo-1,4-dihydronaphthalen-2-yl)methoxy)benzonitrile] | inactive | killing of worms whether RBCs were present or not (S. mansoni worms; 50 μM, with or without human red blood cells (10 μl/well)): no effect on killing the worms; IC50 at 3 days [6]: 6700 nM; decrease of the k2 values compared to the difluoromenadione itself [8]: ~10 fold |
